From ChEMBL document CHEMBL1147394, “Zaragozic acids D and D2: potent inhibitors of squalene synthase and of Ras farnesyl-protein transferase” (J Nat Prod, 1993)

Experiments:
Squalene synthase = molecular target: T1, Squalene synthase (Rattus norvegicus, UniProt Q02769); assay: Inhibition of rat liver squalene synthase by liqiud scintillation counting
T1 sequence (Q02769 whole entry): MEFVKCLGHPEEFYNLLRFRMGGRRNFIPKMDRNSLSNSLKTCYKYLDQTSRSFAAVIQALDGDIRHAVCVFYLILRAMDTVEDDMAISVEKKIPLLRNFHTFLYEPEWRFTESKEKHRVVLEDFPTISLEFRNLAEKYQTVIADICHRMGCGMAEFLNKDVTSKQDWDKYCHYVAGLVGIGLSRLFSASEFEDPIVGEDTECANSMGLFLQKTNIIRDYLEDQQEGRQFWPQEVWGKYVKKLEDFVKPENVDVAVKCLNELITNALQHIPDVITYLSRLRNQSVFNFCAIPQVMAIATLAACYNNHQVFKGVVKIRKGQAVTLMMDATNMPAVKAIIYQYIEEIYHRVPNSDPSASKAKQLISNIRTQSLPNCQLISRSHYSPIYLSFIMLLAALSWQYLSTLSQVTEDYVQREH

[1] = Inhibition of bovine Ras FPTase; set-up: species or system Bos taurus

Row | Compound | IC50 (Squalene synthase) [nM] | IC50 [1] [nM]
1 | C/C=C/CCCC/C=C/CCCCC(=O)O[C@@H]1[C@@H](O)[C@@]2(CCC(C)C(O)C(C)C/C=C/c3ccccc3)O[C@H](C(=O)O)[C@@](O)(C(=O)O)[C@]1(C(=O)O)O2 (some centres undefined) [ZARAGOZIC ACID B] | 0.2 | 1000
2 | CC(=O)O[C@H](CCC[C@]12O[C@H](C(=O)O)[C@@](O)(C(=O)O)[C@](C(=O)O)(O1)[C@H](OC(=O)CC/C=C/[C@H](C)CCCc1ccccc1)[C@H]2O)[C@H](C)Cc1ccccc1 [ZARAGOZIC ACID C] | 0.4 | 150
3 | C=C(CC[C@]12O[C@H](C(=O)O)[C@@](O)(C(=O)O)[C@](C(=O)O)(O1)[C@H](OC(=O)/C=C/[C@@H](C)C[C@@H](C)CC)[C@H]2O)[C@@H](OC(C)=O)[C@H](C)Cc1ccccc1 [ZARAGOZIC ACIDS A] | – | 250

Results, then the compound that gave them:

Row | IC50 (Squalene synthase) [nM] | IC50 [1] [nM] | Compound
4 | 2 | 100 | CCCCCCCCCC(=O)O[C@@H]1[C@@H](O)[C@@]2(CCCC(OC(C)=O)C(C)C/C=C/c3ccccc3)O[C@H](C(=O)O)[C@@](O)(C(=O)O)[C@]1(C(=O)O)O2 (some centres undefined) [ZARAGOZIC ACID D2]
5 | 6 | 100 | CCCCCCCC(=O)O[C@@H]1[C@@H](O)[C@@]2(CCCC(OC(C)=O)C(C)C/C=C/c3ccccc3)O[C@H](C(=O)O)[C@@](O)(C(=O)O)[C@]1(C(=O)O)O2 (some centres undefined) [ZARAGOZIC ACID D]
